# Experimental data from US20250027072A1, “METHODS AND CO[…] TO ENGINEERED CANNABINOID RECEPTORS” (priority 2021, published 2025).
# Several values for one entry are separate records, joined by “and”; a condition that tells them apart may be missing. Equal values may be shown once. Read-outs that look alike come from different tables or passages of the source.
# Assays:
# [1] = target: T1, human Cannabinoid Receptor 1 (CB1R) (Homo sapiens, UniProt P21554); type: cell-based
# T1 construct: syn-prepro (synthetic yeast pre-pro secretion leader) (N); expressed in transfected cells; host or cells: Saccharomyces cerevisiae BY4741-derived strain (ste2, sst2, far1 knocked out); Gpa1-Gαi3 chimera
# [2] = target: T2, human cannabinoid receptor type II (CB2R) (Homo sapiens, UniProt P34972); assay: cell-based; type: cell-based; design: Normalized Activity at 1 μM, CB2R; other: PINACA compounds, 1 μM; Normalized Activity at 1 μm, CB2R; other: 5-fluoro PB-22 isomers, 1 μm; other: MFα-CB2R, ST03 sterol strain, pH 5.8; activity against CB2R; other: at 10 nM, dose response; preference at CB2R of ADB-BINACA over AB-PINACA; signaling at CB2R in synthetic cannabinoid screen; fused on or other part: yeast mating factor alpha (MFα) pre-pro leader fused at the N-terminus as a trafficking signal
# Method: (§1) To efficiently transduce signals from the human machinery to the yeast pathway, the yeast 5 C-terminal residues of the G-alpha gene GPA1 were replaced with the sequence of the Gαi3 human G-alpha variant as previously described (Brown et al. 2000). ZsGreen1 was used to report on the activity of the pathway, integrating it into the genome in place of the pheromone-inducible Fig1 gene (FIG. 14A).
# (§2) Yeast colonies were picked and grown overnight to saturation in pH 5.8 SD-His media in a 2.2 mL deep well plate (Axygen) grown in a plate-shaking incubator (30° C., 1000 rpm, 3 mm orbital). In the morning cultures were diluted 1:10 or 1:25 in SD-His media buffered to pH 7.1 with 100 mM MOPSO (unless otherwise specified). Ligands were added to the culture and incubated with shaking for 8 hours. Cells were then washed three times with ice-cold Tris buffer (pH 7) and diluted 1:20 for cytometry. All cytometry was performed on a Sony SA3800 spectral analyzer. Each sample was tested for 10,000 events, and read at a rate of 1,000 events per second. All assays as reported here were filtered only for singlet populations.
# [3] = target: T3, CB1R (Homo sapiens, UniProt P21554); settings: Banister et al., 2015; read-out: EC50 with CB1R in mouse AtT-20 neuroblastoma cells; cited from earlier work
# T3 construct: host or cells: mouse AtT-20 cells
# [4] = target: T2, human cannabinoid receptor type II (CB2R); assay: cell-based; type: cell-based; settings: Ste2 signal sequence CB2R; read-out: EC50, dose response with CB2R
# Method: as §1, §2
# [5] = target: T2, human cannabinoid receptor type II (CB2R); assay: cell-based; type: cell-based; design: other: syn-prepro CB2R; "Syn=synthetic pre-pro"; fused on or other part: synthetic yeast pre-pro secretion leader (syn-prepro) fused at the N-terminus; settings: EC50, dose response with CB2R, syn-prepro CB2R
# Method: as §1, §2
# [6] = target: T2, human cannabinoid receptor type II (CB2R); assay: cell-based; type: cell-based; design: other: MF alpha leader CB2R; "MF-α=mating factor alpha pre-pro"; fused on or other part: yeast mating factor alpha (MFα) pre-pro leader fused at the N-terminus; settings: EC50, dose response with CB2R, MF alpha leader CB2R
# Method: as §1, §2
# [7] = target: T2, human cannabinoid receptor type II (CB2R); assay: cell-based; type: cell-based; design: MFα (mating factor alpha) pre-pro leader (N); expressed in transfected cells; host or cells: Saccharomyces cerevisiae BY4741-derived biosensor strain (Gpa1-Gαi3 chimera, ZsGreen reporter); sterol-modified strain ST03 for the screens, pH 5.8; settings: EC50, dose response with CB2R, WT CB2R (no leader)
# Method: as §1, §2
# T1 sequence (P21554 90-472): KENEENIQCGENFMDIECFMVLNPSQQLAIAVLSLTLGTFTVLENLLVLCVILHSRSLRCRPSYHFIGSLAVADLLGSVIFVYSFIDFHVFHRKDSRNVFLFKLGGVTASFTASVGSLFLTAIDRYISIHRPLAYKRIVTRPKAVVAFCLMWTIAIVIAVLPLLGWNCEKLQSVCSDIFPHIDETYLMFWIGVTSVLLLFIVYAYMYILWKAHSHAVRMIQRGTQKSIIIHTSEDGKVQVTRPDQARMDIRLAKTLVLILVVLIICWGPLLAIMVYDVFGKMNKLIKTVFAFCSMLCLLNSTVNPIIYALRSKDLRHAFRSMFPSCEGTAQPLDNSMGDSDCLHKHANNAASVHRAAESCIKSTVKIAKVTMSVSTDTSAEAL
# T2 sequence (P34972 whole entry, the tested form may be a part): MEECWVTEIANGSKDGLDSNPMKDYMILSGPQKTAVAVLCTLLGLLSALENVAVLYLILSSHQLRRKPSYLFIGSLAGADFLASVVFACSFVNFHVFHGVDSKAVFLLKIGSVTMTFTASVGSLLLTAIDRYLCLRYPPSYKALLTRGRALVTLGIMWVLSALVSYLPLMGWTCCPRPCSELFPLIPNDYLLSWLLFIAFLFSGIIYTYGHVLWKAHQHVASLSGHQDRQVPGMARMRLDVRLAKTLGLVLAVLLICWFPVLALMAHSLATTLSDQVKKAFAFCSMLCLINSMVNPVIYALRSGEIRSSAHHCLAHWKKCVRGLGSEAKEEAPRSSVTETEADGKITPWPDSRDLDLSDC
# T3 sequence (P21554 whole entry): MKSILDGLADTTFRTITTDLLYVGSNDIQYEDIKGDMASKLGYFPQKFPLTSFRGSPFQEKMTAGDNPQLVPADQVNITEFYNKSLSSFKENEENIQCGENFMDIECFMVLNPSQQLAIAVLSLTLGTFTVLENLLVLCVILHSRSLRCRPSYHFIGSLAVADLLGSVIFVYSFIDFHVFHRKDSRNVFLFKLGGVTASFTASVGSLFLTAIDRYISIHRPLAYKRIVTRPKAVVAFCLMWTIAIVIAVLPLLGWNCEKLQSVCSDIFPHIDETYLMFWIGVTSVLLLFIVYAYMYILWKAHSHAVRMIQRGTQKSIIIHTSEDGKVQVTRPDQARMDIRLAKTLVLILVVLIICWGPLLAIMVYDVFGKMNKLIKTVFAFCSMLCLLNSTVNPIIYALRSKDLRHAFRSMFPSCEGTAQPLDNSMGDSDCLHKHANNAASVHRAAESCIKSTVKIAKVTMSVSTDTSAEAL
Compound,"relative fluorescence of the ACEA positive control at CB1R ([1]; compounds at 10 nM, 100 μM ACEA control)",signaling at CB1R in synthetic cannabinoid screen relative to 100 μM ACEA positive control ([1]; compounds at 1 μM),"EC50 at CB1R, synthetic cannabinoid dose response ([1]; syn-prepro-Δ89-CB1R, wild type ergosterol strain)","EC50 ([1]; syn-prepro-Δ89-CB1R, wild type ergosterol strain, read-out: EC50 at CB1R, synthetic cannabinoid dose response)","EC50 ([2]; MFα-CB2R, ST03 sterol strain, pH 5.8, read-out: EC50 at CB2R, dose response) [nM]",signaling at CB2R in synthetic cannabinoid screen ([2]; compounds at 1 μM),EC50 [3] [nM],EC50 [4] [nM],EC50 [5] [nM],EC50 [6] [nM],EC50 [7] [nM]
CCCCCn1nc(C(=O)N[C@H](C(N)=O)C(C)C)c2ccccc21 [AB-PINACA],strong signaling,maximal fluorescence,low nanomolar range,1.2 nM and 1.21 nM,107,high activity,1.2,,,,
"CCCCC/C=C\C/C=C\C/C=C\C/C=C\CCCC(=O)OC(CO)CO [2-AG, 2-arachidonoyl glycerol]",,,,,,,,150,1540,160,70
